We go through 14 molecules from patent publication US7091311B2, “Peptides and compounds that bind to a receptor” (SmithKline Beecham Corporation, priority 1996, dated 2006).

Where a SMILES comes first, the peptide text is derived from it. Where no end group is shown, it is not given here.

The term IC50 denotes the concentration that inhibits the measured activity by half.

The first assay addresses T1, TPO-R (Homo sapiens, UniProt P40238).
T1 construct: made in house
T1 sequence (P40238 26-491 limits assumed): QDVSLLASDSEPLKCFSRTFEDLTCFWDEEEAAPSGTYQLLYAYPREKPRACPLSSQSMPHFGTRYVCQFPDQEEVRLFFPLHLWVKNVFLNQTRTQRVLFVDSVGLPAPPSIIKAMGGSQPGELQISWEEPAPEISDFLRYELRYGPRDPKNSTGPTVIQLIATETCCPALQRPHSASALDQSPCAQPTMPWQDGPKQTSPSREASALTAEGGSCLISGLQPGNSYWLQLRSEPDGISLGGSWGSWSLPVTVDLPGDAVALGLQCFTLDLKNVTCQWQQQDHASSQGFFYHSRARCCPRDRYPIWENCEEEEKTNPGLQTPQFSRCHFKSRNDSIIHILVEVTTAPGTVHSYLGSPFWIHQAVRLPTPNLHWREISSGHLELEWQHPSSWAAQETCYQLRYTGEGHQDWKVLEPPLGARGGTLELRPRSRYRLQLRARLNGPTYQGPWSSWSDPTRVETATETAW
Put plainly: competition binding assay: MBP-TPO156 binding to immobilized TPO-R (ELISA). The note with it: Table 3; free peptide; read-out: Affinity (IC50). The protocol: A variety of methods can be used to evaluate IC50 values. For example, an equilibrium binding ELISA assay, using either MBP-TPO or lacI-peptide tracer, was used to determine whether the peptides inhibit the binding of TPO to the extracellular domain of the TPO receptor. Typically, the IC50 value were determined using the free peptide. The IC50value can be determined using the free peptide, which optionally can be C-terminally amidated, or can be prepared as an ester or other carboxy amide.
Binding affinities of chemically synthesized peptides for TPO-R were measured in a competition binding assay. The wells of a microtiter plate were coated with 1 mg streptavidin, blocked with PBS/1% BSA, followed by 50 ng of biotinylated anti-receptor immobilizing antibody (Ab179). The wells were then treated with a 1:10 dilution of soluble TPO-R harvest. Various concentrations of peptide or peptide mimetic were mixed with a constant amount of a truncated form of TPO consisting of residues 1–156 fused to the C-terminus of maltose binding protein (MBP-TPO156). The peptide MBP-TPO156 mixtures were added to the TPO-R coated wells, incubated for 2 hours at 4° C. and then washed with PBS. The amount of MBP-TPO156 that was bound at equilibrium was measured by adding a rabbit anti-sera directed against MBP, followed by alkaline phosphatase conjugated goat anti-rabbit IgG. The amount of alkaline phosphatase in each well was then determined using standard methods.
The assay is conducted over a range of peptide concentrations and the results are graphed such that the y axis represents the amount of bound MBP-TPO156 and the x axis represents the concentration of peptide or peptide mimetic.
Turning to GPTLRQWL [G P T L R Q W L], the 50% inhibitory concentration (IC50) is over 200000 nM.

On to “TIKGPTLRQWLKSREHTS [T I K G P T L R Q W L K S R E H T S]”, for which the concentration for half-maximal inhibition (IC50) is at most 500 nM.

Consider “GNADGPTLRQWLEGRRPKN [G N A D G P T L R Q W L E G R R P K N]”, for which the half-inhibitory concentration (IC50) was at most 500 nM.

On to “SIEGPTLREWLTSRTPHS [S I E G P T L R E W L T S R T P H S]”, for which the half-maximal inhibitory concentration (IC50) is at most 500 nM.

As to “LAIEGPTLRQWLHGNGRDT [L A I E G P T L R Q W L H G N G R D T]”, the half-inhibitory concentration (IC50) is at most 500 nM.

The assay is the same for the next values; noted with them: Table 4, cyclized compounds; read-out: IC50.
For the molecule `CC[C@H](C)[C@@H]1NC(=O)[C@H](Cc2c[nH]c3ccccc23)NC(=O)[C@H](CCC(=O)O)NC(=O)[C@H](CCCNC(=N)N)NC(=O)[C@H](CC(C)C)NC(=O)[C@H]([C@@H](C)O)NC(=O)[C@@H]2CCCN2C(=O)CNC(=O)[C@H](CC(=O)O)NC(=O)[C@H](C)NC(=O)CSC[C@@H](C(N)=O)NC(=O)[C@H](Cc2ccccc2)NC(=O)[C@H](CO)NC1=O` (HELM PEPTIDE1{[O=C(C[*:3])[*:2]].A.D.G.P.T.L.R.E.W.I.S.F.C.[am]}$PEPTIDE1,PEPTIDE1,1:R3-14:R3$$$V2.0), the IC50 was at most 500 nM.

The assay is the same for the next values; noted with them: Table 6; read-out: IC50.
Turning to `CC[C@H](C)[C@@H]1NC(=O)[C@H](Cc2c[nH]c3ccccc23)NC(=O)[C@H](CCC(=O)O)NC(=O)[C@H](CCCNC(=N)N)NC(=O)[C@H](CC(C)C)NC(=O)[C@H]([C@@H](C)O)NC(=O)[C@@H]2CCCN2C(=O)CNC(=O)[C@H](CC(=O)O)NC(=O)[C@H](C)NC(=O)CSC[C@@H](C(N)=O)NC(=O)[C@H](C(c2ccccc2)c2ccccc2)NC(=O)[C@H](CO)NC1=O` [F - DiPh-Ala] (HELM PEPTIDE1{[O=C(C[*:3])[*:2]].A.D.G.P.T.L.R.E.W.I.S.[O=C([C@@H](N[*:1])C(c1ccccc1)c1ccccc1)[*:2]].C.[am]}$PEPTIDE1,PEPTIDE1,1:R3-14:R3$$$V2.0; C-terminus assumed), the 50% inhibitory concentration (IC50) is at most 500 nM.

Regarding `CC[C@@H]1NC(=O)[C@H]([C@@H](C)CC)NC(=O)[C@H](Cc2c[nH]c3ccccc23)NC(=O)[C@H](CCC(=O)O)NC(=O)[C@H](CCCNC(=N)N)NC(=O)[C@H](CC(C)C)NC(=O)[C@H]([C@@H](C)O)NC(=O)[C@@H]2CCCN2C(=O)CNC(=O)[C@H](CC(=O)O)NC(=O)[C@H](C)NC(=O)CSC[C@@H](C(N)=O)NC(=O)[C@H](C(c2ccccc2)c2ccccc2)NC1=O` [S,F - Abu, DiPh-Ala] (HELM PEPTIDE1{[O=C(C[*:3])[*:2]].A.D.G.P.T.L.R.E.W.I.[Abu].[O=C([C@@H](N[*:1])C(c1ccccc1)c1ccccc1)[*:2]].C.[am]}$PEPTIDE1,PEPTIDE1,1:R3-14:R3$$$V2.0; C-terminus assumed), the IC50 is at most 500 nM.

In the case of `CC[C@H](C)[C@@H]1NC(=O)[C@H](Cc2c[nH]c3ccccc23)NC(=O)[C@H](CCC(=O)O)NC(=O)[C@H](CCCNC(=N)N)NC(=O)[C@H](CC(C)C)NC(=O)[C@H]([C@@H](C)O)NC(=O)[C@@H]2CCCN2C(=O)CNC(=O)[C@H](CC(=O)O)NC(=O)[C@H](C)NC(=O)CSC[C@@H](C(=O)NCC(N)=O)NC(=O)[C@H](Cc2ccccc2)NC(=O)[C@H](CO)NC1=O` [C-term, Gly addition] (HELM PEPTIDE1{[O=C(C[*:3])[*:2]].A.D.G.P.T.L.R.E.W.I.S.F.C.G.[am]}$PEPTIDE1,PEPTIDE1,1:R3-14:R3$$$V2.0; C-terminus assumed), the half-maximal inhibitory concentration (IC50) is at most 500 nM.

The assay is the same for the next values; noted with them: Table 7, dimer compounds; read-out: IC50.
Regarding `CC[C@H](C)[C@H](NC(=O)[C@H](Cc1c[nH]c2ccccc12)NC(=O)[C@H](CCC(=O)O)NC(=O)[C@H](CCCNC(=N)N)NC(=O)[C@H](CC(C)C)NC(=O)[C@@H](NC(C)=O)[C@@H](C)O)C(=O)N[C@@H](CO)C(=O)N[C@@H](Cc1ccccc1)C(=O)N[C@@H](CSSC[C@H](NC(=O)[C@H](Cc1ccccc1)NC(=O)[C@H](CO)NC(=O)[C@@H](NC(=O)[C@H](Cc1c[nH]c2ccccc12)NC(=O)[C@H](CCC(=O)O)NC(=O)[C@H](CCCNC(=N)N)NC(=O)[C@H](CC(C)C)NC(=O)[C@@H](NC(C)=O)[C@@H](C)O)[C@@H](C)CC)C(N)=O)C(N)=O` (HELM PEPTIDE1{[ac].T.L.R.E.W.I.S.F.C.[am]}|PEPTIDE2{[ac].T.L.R.E.W.I.S.F.C.[am]}$PEPTIDE1,PEPTIDE2,10:R3-10:R3$$$V2.0; C-terminus assumed), the half-maximal inhibitory concentration (IC50) turned out to be 200000 nM.

Turning to `CC[C@H](C)[C@H](NC(=O)[C@H](Cc1c[nH]c2ccccc12)NC(=O)[C@H](CCC(=O)O)NC(=O)[C@H](CCCNC(=N)N)NC(=O)[C@H](CC(C)C)NC(=O)[C@@H](NC(=O)[C@@H]1CCCN1C(=O)CNC(=O)[C@H](CC(=O)O)NC(=O)[C@H](C)NC(C)=O)[C@@H](C)O)C(=O)N[C@@H](CO)C(=O)N[C@@H](Cc1ccccc1)C(=O)N[C@@H](CSSC[C@H](NC(=O)[C@H](Cc1ccccc1)NC(=O)[C@H](CO)NC(=O)[C@@H](NC(=O)[C@H](Cc1c[nH]c2ccccc12)NC(=O)[C@H](CCC(=O)O)NC(=O)[C@H](CCCNC(=N)N)NC(=O)[C@H](CC(C)C)NC(=O)[C@@H](NC(=O)[C@@H]1CCCN1C(=O)CNC(=O)[C@H](CC(=O)O)NC(=O)[C@H](C)NC(C)=O)[C@@H](C)O)[C@@H](C)CC)C(N)=O)C(N)=O` (HELM PEPTIDE1{[ac].A.D.G.P.T.L.R.E.W.I.S.F.C.[am]}|PEPTIDE2{[ac].A.D.G.P.T.L.R.E.W.I.S.F.C.[am]}$PEPTIDE1,PEPTIDE2,14:R3-14:R3$$$V2.0; C-terminus assumed), the IC50 is at most 500 nM.

For `CC[C@H](C)[C@H](NC(=O)[C@H](Cc1c[nH]c2ccccc12)NC(=O)[C@H](CCC(=O)O)NC(=O)[C@H](CCCNC(=N)N)NC(=O)[C@H](CC(C)C)NC(=O)[C@@H](NC(=O)[C@@H]1CCCN1C(C)=O)[C@@H](C)O)C(=O)N[C@@H](CO)C(=O)N[C@@H](Cc1ccccc1)C(=O)N[C@@H](CSSC[C@H](NC(=O)[C@H](Cc1ccccc1)NC(=O)[C@H](CO)NC(=O)[C@@H](NC(=O)[C@H](Cc1c[nH]c2ccccc12)NC(=O)[C@H](CCC(=O)O)NC(=O)[C@H](CCCNC(=N)N)NC(=O)[C@H](CC(C)C)NC(=O)[C@@H](NC(=O)[C@@H]1CCCN1C(C)=O)[C@@H](C)O)[C@@H](C)CC)C(N)=O)C(N)=O` (HELM PEPTIDE1{[ac].P.T.L.R.E.W.I.S.F.C.[am]}|PEPTIDE2{[ac].P.T.L.R.E.W.I.S.F.C.[am]}$PEPTIDE1,PEPTIDE2,11:R3-11:R3$$$V2.0; C-terminus assumed), the IC50 was at most 500 nM.

`CC[C@H](C)[C@H](NC(=O)[C@H](Cc1c[nH]c2ccccc12)NC(=O)[C@H](CCC(=O)O)NC(=O)[C@H](CCCNC(=N)N)NC(=O)[C@H](CC(C)C)NC(=O)[C@@H](NC(=O)[C@@H]1CCCN1C(=O)CNC(C)=O)[C@@H](C)O)C(=O)N[C@@H](CO)C(=O)N[C@@H](Cc1ccccc1)C(=O)N[C@@H](CSSC[C@H](NC(=O)[C@H](Cc1ccccc1)NC(=O)[C@H](CO)NC(=O)[C@@H](NC(=O)[C@H](Cc1c[nH]c2ccccc12)NC(=O)[C@H](CCC(=O)O)NC(=O)[C@H](CCCNC(=N)N)NC(=O)[C@H](CC(C)C)NC(=O)[C@@H](NC(=O)[C@@H]1CCCN1C(=O)CNC(C)=O)[C@@H](C)O)[C@@H](C)CC)C(N)=O)C(N)=O` (HELM PEPTIDE1{[ac].G.P.T.L.R.E.W.I.S.F.C.[am]}|PEPTIDE2{[ac].G.P.T.L.R.E.W.I.S.F.C.[am]}$PEPTIDE1,PEPTIDE2,12:R3-12:R3$$$V2.0; C-terminus assumed): the 50% inhibitory concentration (IC50) was at most 500 nM.

In the case of `CSCC[C@H](N)C(=O)N[C@H](C(=O)NCC(=O)N1CCC[C@H]1C(=O)N[C@H](C(=O)N[C@@H](CC(C)C)C(=O)N[C@@H](CCCNC(=N)N)C(=O)N[C@@H](CO)C(=O)NCC(=O)N[C@@H](CSSC[C@H](NC(=O)CNC(=O)[C@H](CO)NC(=O)[C@H](CCCNC(=N)N)NC(=O)[C@H](CC(C)C)NC(=O)[C@@H](NC(=O)[C@@H]1CCCN1C(=O)CNC(=O)[C@@H](NC(=O)[C@@H](N)CCSC)C(C)C)[C@@H](C)O)C(N)=O)C(N)=O)[C@@H](C)O)C(C)C` (HELM PEPTIDE1{M.V.G.P.T.L.R.S.G.C.[am]}|PEPTIDE2{M.V.G.P.T.L.R.S.G.C.[am]}$PEPTIDE1,PEPTIDE2,10:R3-10:R3$$$V2.0), the IC50 came out at 200000 nM.
